These results are taken from patent US20200163950A1, “PIPERIDINE-DIONE DERIVATIVES FOR USE AS CONTRACEPTIVES” (SPERMATECH AS, priority 2017, published 2020).

This test deals with LDHC (Homo sapiens, UniProt P07864). Briefly: Coupled diaphorase assay (LDHC inhibition). Format: biochemical. To be noted: 10 nM LDHC, 500 μM lactate, 150 μM NAD+, 3 μM resazurin, fluorescence readout of resorufin. An excerpt:
The inhibitory properties of the compounds were investigated using a coupled enzyme assay that links the lactate dehydrogenase (LDH) reaction to the production of fluorescent resorufin by diaphorase.
Human lactate dehydrogenases (LDH) catalyze the reversible interconversion between pyruvate and lactate. LDH is capable of catalyzing both the forward (pyruvate to lactate) and the reverse (lactate to pyruvate) reaction, using either NADH or NAD+ as cofactor. The reaction proceeds in either direction dependent on various factors, such as substrate availability, the presence of necessary cofactors, temperature and pH.
The coupled assay relies on the […] of NAD+ to NADH throughout the conversion of lactate to pyruvate by LDHC. The produced NADH serves as cofactor in the diaphorase reaction, which reduces non-fluorescent resazurin to fluorescent resorufin. Therefore, the assay indirectly monitors the rate of pyruvate production. Although the consumption or formation of NADH can be directly monitored due to the intrinsic fluorescence of the molecule (excitation: 340 nm, emission: 460 nm) there are problems linked to the direct readout method. It has been shown that many compounds in chemical libraries interfere with the assay due to fluorescent properties similar to NADH. Shifting the assay to longer wavelengths by coupling the LDH reaction to the conversion of resazurin to fluorescent resorufin by diaphorase reduces this compound interference. The assay direction was thus chosen to provide a robust and reliable assay.
For the determination of IC50 values a coupled diaphorase assay was adopted from Bembenek et al. (A Fluorescence-Based Coupling Reaction for Monitoring the Activity of Recombinant Human NAD Synthetase. ASSAY and Drug Development Technologies, 2005. 3(5): 533-541). Compounds were tested in duplicates using 2-fold, 3-fold or 4-fold serial dilutions including 11 individual concentrations, starting from 5000 μM to 30 μM depending on their activity in initial tests. Positive (without compound in the presence of DMSO) and inhibition controls (oxamate, 28.7 mM final concentration in assay) or no-substrate controls representing 100% inhibition were added. Oxamate is a well characterized inhibitor of LDH that inhibits LDH enzyme activity in the mM range in vitro with high specificity (Papacostantinou et al., J. Biol. Chem. 236: 278-284, 1961). The controls allowed for the calculation of the percentage inhibition for each data point. The assay buffer consisted of 50 mM HEPES pH 7.4, 5 mM MgCl2 and 0.05% pluronic acid F-127. Enzyme solution with final concentrations of 10 nM LDHC, as well as 0.2 U/ml diaphorase was dispensed into 384-well plates (Greiner bio-one) using a CyBi®-SELMA robotic pipettor. Compound dilutions and the enzyme were incubated for at least 15 to 20 min at room temperature. Thereafter, the substrate solution was added (final concentrations: 500 μM lactate, 150 μM NAD^+, 3 μM resazurin). The reaction was quenched by the addition of a stop solution (final concentrations: 20 mM EDTA, 400 mM NaCl, 40 mM pyruvate). Fluorescence was read out after 5 min of incubation at an excitation wavelength of 560 nm and an emission wavelength of 590 nm on a BMG labtech FLUOstar OPTIMA or a Perkin Elmer Victor X plate reader. […]
A general note: Alamar Blue is a resazurin reagent that responds to reducing activity.

Chain of LDHC (P07864 whole entry): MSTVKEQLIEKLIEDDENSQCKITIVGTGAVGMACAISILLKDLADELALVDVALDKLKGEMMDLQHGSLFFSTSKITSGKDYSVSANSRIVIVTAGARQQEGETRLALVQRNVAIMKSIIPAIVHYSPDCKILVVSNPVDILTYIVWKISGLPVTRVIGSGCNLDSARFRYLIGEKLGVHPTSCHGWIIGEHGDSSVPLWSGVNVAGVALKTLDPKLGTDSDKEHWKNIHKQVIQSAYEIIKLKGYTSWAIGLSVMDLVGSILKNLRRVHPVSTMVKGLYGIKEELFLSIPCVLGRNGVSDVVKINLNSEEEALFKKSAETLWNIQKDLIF

A word on the IC50: it is the concentration at which inhibition is half-maximal. `O=C1CC(c2ccc(N3CCOCC3)cc2)(c2ccsc2)NC(=O)C1Sc1ccccc1Cl` (single isomer, unassigned) [7 Enantiomer 1] registered an IC50 of 0.5 to 10 µM.

Compound `O=C1CC(c2ccsc2)(c2cccc(OCC3CCCC3)n2)NC(=O)C1Sc1ccc(F)cc1Cl` (stereo not shown) [Example 2, 3-[(2-chloro-4-fluorophenyl)sulfanyl]-6-[6-(cyclopentylmethoxy)pyridin-2-yl]-6-(thiophen-3-yl)piperidine-2,4-dione] returned an IC50 of 0.5 to 10 µM.

The compound `O=C1CC(c2ccsc2)(c2cccc(OCC3CCCC3)n2)NC(=O)C1Sc1cccc(Cl)c1Cl` (stereo not shown) [Example 4, 6-[6-(cyclopentylmethoxy)pyridin-2-yl]-3-[(2,3-dichlorophenyl)sulfanyl]-6-(thiophen-3-yl)piperidine-2,4-dione] registered a half-maximal inhibitory concentration (IC50) of 50 to 100 µM.

As to `O=C1CC(c2ccc(N3CCOCC3)cc2)(c2ccsc2)NC(=O)C1Sc1ccccc1Cl` (racemic) [Example 7, 3-((2-chlorophenyl)thio)-6-(4-morpholinophenyl)-6-(thiophen-3-yl)piperidine-2,4-dione], the IC50 lay in the range of 0.5 to 10 µM.

Compound `O=C1CC(c2ccc(N3CCOCC3)cc2)(c2ccsc2)NC(=O)C1Sc1cc(Cl)ccc1Cl` (single isomer, unassigned) [6 Enantiomer 1] registered an IC50 of 10 to 50 µM.

Turning to `O=C1CC(c2ccsc2)(c2cccc(OCC3CCCC3)n2)NC(=O)C1Sc1ccc(Cl)cc1Cl` (stereo not shown) [Example 1, 6-[6-(cyclopentylmethoxy)pyridin-2-yl]-3-[(2,4-dichlorophenyl)sulfanyl]-6-(thiophen-3-yl)piperidine-2,4-dione], the IC50 fell in the range of 50 to 100 µM.

On to `O=C1CC(c2ccc(N3CCOCC3)cc2)(c2ccsc2)NC(=O)C1Sc1ccc(F)cc1Cl` (stereo not shown) [Example 5, 3-((2-chloro-4-fluorophenyl)thio)-6-(4-morpholinophenyl)-6-(thiophen-3-yl)piperidine-2,4-dione], for which the IC50 is 0.5 to 10 µM.

The compound `O=C1CC(c2ccsc2)(c2cccc(Cc3cccc(F)c3)n2)NC(=O)C1Sc1ccccc1Cl` (stereo not shown) [Example 11, 3-((2-chlorophenyl)thio)-6-(6-(3-fluorobenzyl)pyridin-2-yl)-6-(thiophen-3-yl)piperidine-2,4-dione] yielded an IC50 of 0.5 to 10 µM.

For `O=C1NC(c2ccc(N3CCOCC3)cc2)(c2ccsc2)CC(OC(=O)c2ccncc2)=C1Sc1cc(Cl)ccc1Cl` (stereo not shown) [Example 9, 5-((2,5-dichlorophenyl)thio)-2-(4-morpholinophenyl)-6-oxo-2-(thiophen-3-yl)-1,2,3,6-tetrahydropyridin-4-yl isonicotinate], the half-inhibitory concentration (IC50) was in the range of 0.5 to 10 µM.

In turn, `O=C1CC(c2ccsc2)(c2cccc(OC3COC3)n2)NC(=O)C1Sc1ccccc1Cl` (stereo not shown) [Example 10, 3-((2-chlorophenyl)thio)-6-(6-(oxetan-3-yloxy)pyridin-2-yl)-6-(thiophen-3-yl)piperidine-2,4-dione] gave a 50% inhibitory concentration (IC50) of 10 to 50 µM.

Regarding `O=C1CC(c2ccc(N3CCOCC3)cc2)(c2ccsc2)NC(=O)C1Sc1cc(Cl)ccc1Cl` (single isomer, unassigned) [6 Enantiomer 2], the IC50 was 50 to 100 µM.

The compound `CC(C)CCOc1cccc(C2(c3ccsc3)CC(=O)C(Sc3ccccc3Cl)C(=O)N2)n1` (stereo not shown) [Example 12, 3-((2-chlorophenyl)thio)-6-(6-(isopentyloxy)pyridin-2-yl)-6-(thiophen-3-yl)piperidine-2,4-dione] returned an IC50 of 0.5 to 10 µM.

`O=C1CC(c2ccc(N3CCOCC3)cc2)(c2ccsc2)NC(=O)C1Sc1ccccc1Cl` (single isomer, unassigned) [7 Enantiomer 2] showed an IC50 of 10 to 50 µM.

Compound `O=C1CC(c2ccsc2)(c2cccc(OCC3CCCC3)n2)NC(=O)C1Sc1ccccc1Cl` (stereo not shown) [Example 8, 3-((2-chlorophenyl)thio)-6-(6-(cyclopentylmethoxy)pyridin-2-yl)-6-(thiophen-3-yl)piperidine-2,4-dione] showed a half-inhibitory concentration (IC50) of 0.5 to 10 µM.

`O=C1CC(c2ccsc2)(c2cccc(OCC3CCCC3)n2)NC(=O)C1Sc1cc(Cl)ccc1Cl` (stereo not shown) [Example 3, 6-[6-(cyclopentylmethoxy)pyridin-2-yl]-3-[(2,5-dichlorophenyl)sulfanyl]-6-(thiophen-3-yl)piperidine-2,4-dione] showed an IC50 of 0.5 to 10 µM.

As to `O=C1CC(c2ccc(N3CCOCC3)cc2)(c2ccsc2)NC(=O)C1Sc1cc(Cl)ccc1Cl` (racemic) [Example 6, 3-((2,5-dichlorophenyl)thio)-6-(4-morpholinophenyl)-6-(thiophen-3-yl)piperidine-2,4-dione], the half-maximal inhibitory concentration (IC50) fell in the range of 0.5 to 10 µM.
